Test results from patent publication US9617267B2, “Compounds and methods for kinase modulation, and indications therefor” (Plexxikon Inc., priority 2009, dated 2017).
Where two headings read alike, the source gives them in different places.

Tests used:
[1] = biological target: CYP2D6 (Homo sapiens (Human), UniProt P10635); assay: CYP enzyme inhibition, fluorescent substrate (AMMC); type: in vitro ADME; conditions: read-out: Cyp IC50 2D6
In short: (§1)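 Ten-point 1:1 compound dilutions in NADPH-regenerating cofactor mix, pre-incubated 10 min at 37 °C before enzyme/substrate addition: CYP1A2 0.5 pmol with 5 μM CEC, 15 min, 409 ex/460 em; CYP2D6 1.5 pmol with 1.5 μM AMMC, 30 min, 409 ex/530 em. IC50 from fluorescent product vs concentration.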

[2] = biological target: CYP2C19 (Homo sapiens (Human), UniProt P33261); assay: CYP enzyme inhibition, fluorescent substrate (CEC)
In short: (§2)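 Human CYP activity was followed by the fluorescence of the metabolized product of a known substrate, which falls as metabolism is inhibited. Compounds from 100 mM DMSO stocks were serially diluted 1:1 over 10 points in co-factor mix and preincubated 10 min at 37 °C. IC50 was fitted from signal versus concentration.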

[3] = Relative solubility by turbidity threshold concentration in aqueous buffers (pH 1.5, 4.5, 6.8, 7.4); type: physicochemical; conditions: for turbidity threshold (L, M, H) 1.4: pH 1.4 [sic] (method: SGF pH 1.5); for turbidity threshold (L, M, H) 4.5: pH 4.5 (SIF); for turbidity threshold (L, M, H) 6.8: pH 6.8 (SIF); for turbidity threshold (L, M, H) 7.4: pH 7.4 (HEPES)
In short: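 Solubility class (high >250 μM, moderate 31.3–250 μM, low <31.3 μM) comes from the concentration where absorbance reaches a 0.01 threshold, averaged across 490/535/650 nm. Samples were compound dilutions from DMSO stock, 1 μL into 99 μL buffer at pH 1.5, 4.5, 6.8 or 7.4.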

[4] = biological target: CYP1A2 (Homo sapiens (Human), UniProt P05177); assay: CYP enzyme inhibition, fluorescent substrate (CEC)
In short: as §1

[5] = biological target: c-Raf-1 (Homo sapiens, UniProt P04049); assay: c-Raf-1 kinase activity biochemical assay (AlphaScreen, biotin-MEK1 phosphorylation)
In short: (§3)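 Biotin-MEK1 phosphorylation measured after 45 min kinase reaction at RT with 100 μM ATP final; compounds tested at 8 points from 0.1 mM DMSO stock.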

[6] = biological target: CYP3A4(BQ) (Homo sapiens (Human), UniProt P08684); assay: CYP enzyme inhibition, fluorescent substrate BQ; conditions: read-out: Cyp IC50 3A4(BQ); CYP3A4, substrate BQ
In short: as §2

[7] = biological target: CYP3A4(BFC) (Homo sapiens (Human), UniProt P08684); assay: CYP enzyme inhibition, fluorescent substrate BFC
In short: as §2

[8] = biological target: B-Raf (Homo sapiens (Human), UniProt P15056); assay: B-Raf kinase activity biochemical assay (AlphaScreen, biotin-MEK1 phosphorylation); conditions: B-Raf
In short: as §3

[9] = test system: B-Raf; assay: as above; conditions: for Biochemical activity ratio B/V600E: ratio of IC50 B-Raf / B-Raf V600E; for Biochemical activity ratio B/C: ratio of IC50 B-Raf / c-Raf-1
In short: as §3

[10] = biological target: CYP2C9 (Homo sapiens (Human), UniProt P11712); assay: CYP enzyme inhibition, fluorescent substrate (MFC)
In short: as §2

[11] = biological target: B-Raf V600E (Homo sapiens (Human), UniProt P15056, V600E); assay: B-Raf V600E kinase activity biochemical assay (AlphaScreen, biotin-MEK1 phosphorylation); conditions: for IC50: B-Raf V600E; for Biochemical activity ratio V600E/C: ratio of IC50 B-Raf V600E / c-Raf-1
In short: as §3

[12] = read-out: Cyp IC50 2C19, CYP2C19, substrate CEC
[13] = read-out: Cyp IC50 2C9, CYP2C9, substrate MFC
[14] = read-out: Cyp IC50 3A4(BFC), CYP3A4, substrate BFC
[15] = read-out: Cyp IC50 1A2, CYP1A2, substrate CEC

CYP2C9, sequence (P11712 whole entry): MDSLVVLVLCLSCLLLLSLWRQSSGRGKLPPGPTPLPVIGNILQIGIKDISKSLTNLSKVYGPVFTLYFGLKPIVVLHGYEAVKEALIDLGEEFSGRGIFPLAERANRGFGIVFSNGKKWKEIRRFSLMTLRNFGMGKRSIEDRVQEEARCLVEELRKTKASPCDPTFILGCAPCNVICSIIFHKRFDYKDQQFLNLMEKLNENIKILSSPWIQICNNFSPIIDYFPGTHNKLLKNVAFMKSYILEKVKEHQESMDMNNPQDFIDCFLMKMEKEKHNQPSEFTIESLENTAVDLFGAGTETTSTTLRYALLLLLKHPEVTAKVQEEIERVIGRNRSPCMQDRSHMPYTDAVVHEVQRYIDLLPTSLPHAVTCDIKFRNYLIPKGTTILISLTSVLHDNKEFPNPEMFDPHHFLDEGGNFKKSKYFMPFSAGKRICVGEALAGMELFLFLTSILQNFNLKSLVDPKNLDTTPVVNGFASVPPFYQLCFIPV
CYP2D6, sequence (P10635 whole entry): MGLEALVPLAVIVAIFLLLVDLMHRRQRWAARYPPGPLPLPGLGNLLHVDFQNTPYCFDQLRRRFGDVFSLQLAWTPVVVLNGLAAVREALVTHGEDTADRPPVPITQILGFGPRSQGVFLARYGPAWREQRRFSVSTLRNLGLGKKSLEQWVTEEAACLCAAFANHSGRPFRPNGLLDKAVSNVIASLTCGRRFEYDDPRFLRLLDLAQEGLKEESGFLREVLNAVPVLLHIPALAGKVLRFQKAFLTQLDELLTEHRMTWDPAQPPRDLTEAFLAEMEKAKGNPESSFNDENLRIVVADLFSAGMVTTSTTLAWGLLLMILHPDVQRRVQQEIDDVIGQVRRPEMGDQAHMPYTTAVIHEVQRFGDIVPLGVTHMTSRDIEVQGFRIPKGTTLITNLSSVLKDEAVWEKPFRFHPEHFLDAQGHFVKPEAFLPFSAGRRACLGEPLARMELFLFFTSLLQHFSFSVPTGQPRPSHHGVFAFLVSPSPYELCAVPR
B-Raf (Homo sapiens (Human), UniProt P15056), sequence (P15056 whole entry): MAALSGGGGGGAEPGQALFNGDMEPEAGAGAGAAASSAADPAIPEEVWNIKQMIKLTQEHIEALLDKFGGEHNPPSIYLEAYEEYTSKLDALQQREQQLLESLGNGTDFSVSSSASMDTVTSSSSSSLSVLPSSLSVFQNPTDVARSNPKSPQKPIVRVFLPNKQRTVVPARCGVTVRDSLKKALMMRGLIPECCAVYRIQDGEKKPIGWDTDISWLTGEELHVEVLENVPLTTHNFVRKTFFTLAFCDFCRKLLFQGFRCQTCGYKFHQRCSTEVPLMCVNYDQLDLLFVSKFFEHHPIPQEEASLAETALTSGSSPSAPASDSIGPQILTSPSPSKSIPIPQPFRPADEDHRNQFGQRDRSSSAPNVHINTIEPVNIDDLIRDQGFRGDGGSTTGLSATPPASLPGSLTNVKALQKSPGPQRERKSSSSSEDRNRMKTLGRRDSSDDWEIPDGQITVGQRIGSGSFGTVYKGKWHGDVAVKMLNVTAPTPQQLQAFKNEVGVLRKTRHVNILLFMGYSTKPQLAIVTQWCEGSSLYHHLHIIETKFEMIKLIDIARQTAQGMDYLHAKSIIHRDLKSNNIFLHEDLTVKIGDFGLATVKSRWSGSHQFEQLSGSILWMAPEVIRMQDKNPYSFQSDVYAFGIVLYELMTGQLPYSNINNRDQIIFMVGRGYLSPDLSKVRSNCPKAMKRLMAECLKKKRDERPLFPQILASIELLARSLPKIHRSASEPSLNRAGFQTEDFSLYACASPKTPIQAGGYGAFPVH
B-Raf V600E, sequence (P15056 whole entry V600E): as the sequence (P15056 whole entry) above, with V600E counted along it
c-Raf-1, sequence (P04049 whole entry, looked up): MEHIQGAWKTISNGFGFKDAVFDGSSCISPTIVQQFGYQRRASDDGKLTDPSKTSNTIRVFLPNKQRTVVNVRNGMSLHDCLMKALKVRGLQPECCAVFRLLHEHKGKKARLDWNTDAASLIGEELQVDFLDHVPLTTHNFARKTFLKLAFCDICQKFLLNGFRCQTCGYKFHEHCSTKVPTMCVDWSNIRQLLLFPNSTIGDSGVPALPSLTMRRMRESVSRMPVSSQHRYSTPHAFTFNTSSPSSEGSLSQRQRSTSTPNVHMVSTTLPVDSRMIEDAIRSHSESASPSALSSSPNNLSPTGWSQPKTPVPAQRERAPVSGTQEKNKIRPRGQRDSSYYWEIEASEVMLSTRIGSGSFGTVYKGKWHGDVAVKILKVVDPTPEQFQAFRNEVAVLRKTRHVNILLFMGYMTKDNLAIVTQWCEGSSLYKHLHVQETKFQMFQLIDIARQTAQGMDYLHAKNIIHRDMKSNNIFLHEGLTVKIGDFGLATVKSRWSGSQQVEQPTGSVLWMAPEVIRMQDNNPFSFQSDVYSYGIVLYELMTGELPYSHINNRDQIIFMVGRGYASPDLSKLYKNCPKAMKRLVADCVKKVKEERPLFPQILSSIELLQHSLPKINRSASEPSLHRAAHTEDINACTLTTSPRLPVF
CYP1A2, sequence (P05177 whole entry): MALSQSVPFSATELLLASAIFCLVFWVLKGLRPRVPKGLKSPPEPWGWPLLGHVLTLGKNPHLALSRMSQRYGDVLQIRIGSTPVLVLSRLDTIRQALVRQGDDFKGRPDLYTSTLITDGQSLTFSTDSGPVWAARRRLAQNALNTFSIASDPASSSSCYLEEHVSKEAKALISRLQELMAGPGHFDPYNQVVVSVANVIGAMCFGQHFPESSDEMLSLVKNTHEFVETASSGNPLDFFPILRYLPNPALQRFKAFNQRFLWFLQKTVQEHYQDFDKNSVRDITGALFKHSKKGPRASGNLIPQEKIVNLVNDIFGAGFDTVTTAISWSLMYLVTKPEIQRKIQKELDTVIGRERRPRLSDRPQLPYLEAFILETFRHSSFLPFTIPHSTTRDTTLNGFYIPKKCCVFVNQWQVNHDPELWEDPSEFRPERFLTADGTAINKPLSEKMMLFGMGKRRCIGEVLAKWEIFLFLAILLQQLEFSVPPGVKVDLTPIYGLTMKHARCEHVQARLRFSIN
CYP3A4(BQ), sequence (P08684 whole entry): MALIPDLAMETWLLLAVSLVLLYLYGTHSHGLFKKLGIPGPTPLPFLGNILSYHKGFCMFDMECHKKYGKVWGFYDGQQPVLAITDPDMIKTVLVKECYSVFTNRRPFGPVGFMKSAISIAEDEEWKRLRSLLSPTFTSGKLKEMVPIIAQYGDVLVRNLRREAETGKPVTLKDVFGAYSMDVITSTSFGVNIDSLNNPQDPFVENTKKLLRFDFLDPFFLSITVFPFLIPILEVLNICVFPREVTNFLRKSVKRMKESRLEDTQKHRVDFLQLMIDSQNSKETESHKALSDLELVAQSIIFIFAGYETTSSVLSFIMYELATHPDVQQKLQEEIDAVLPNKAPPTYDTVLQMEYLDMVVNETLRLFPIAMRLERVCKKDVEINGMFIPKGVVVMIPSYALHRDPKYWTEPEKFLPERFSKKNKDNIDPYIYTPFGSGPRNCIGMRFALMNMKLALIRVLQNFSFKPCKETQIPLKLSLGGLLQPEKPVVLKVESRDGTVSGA
CYP3A4(BFC), sequence (P08684 whole entry): as above
CYP2C19, sequence (P33261 whole entry): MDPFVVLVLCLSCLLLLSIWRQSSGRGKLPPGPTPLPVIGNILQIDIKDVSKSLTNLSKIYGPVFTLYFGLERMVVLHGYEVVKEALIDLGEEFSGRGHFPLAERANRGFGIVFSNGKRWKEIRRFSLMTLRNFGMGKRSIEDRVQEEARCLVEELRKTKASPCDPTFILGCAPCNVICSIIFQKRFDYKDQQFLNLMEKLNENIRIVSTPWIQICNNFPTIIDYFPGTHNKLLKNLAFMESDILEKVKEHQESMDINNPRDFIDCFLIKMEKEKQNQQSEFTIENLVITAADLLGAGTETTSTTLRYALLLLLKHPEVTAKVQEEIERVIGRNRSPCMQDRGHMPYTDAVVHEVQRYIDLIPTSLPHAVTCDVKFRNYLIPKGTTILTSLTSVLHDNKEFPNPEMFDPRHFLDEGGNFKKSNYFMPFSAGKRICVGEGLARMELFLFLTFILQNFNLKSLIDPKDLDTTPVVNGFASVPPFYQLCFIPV

| SMILES | IC50 [1] | IC50 [2, 12] | turbidity threshold (L, M, H) 1.4 [3] | turbidity threshold (L, M, H) 4.5 [3] | turbidity threshold (L, M, H) 6.8 [3] | turbidity threshold (L, M, H) 7.4 [3] | IC50 ([4]; human, 15 min) | IC50 [5] | IC50 [6] | IC50 [7] | IC50 [8] | Biochemical activity ratio B/V600E [9] | Biochemical activity ratio B/C [9] | IC50 [10, 13] | IC50 [11] | Biochemical activity ratio V600E/C [11] | IC50 [2] | IC50 [7, 14] | IC50 [4, 15] | IC50 [10] |
| --- | --- | --- | --- | --- | --- | --- | --- | --- | --- | --- | --- | --- | --- | --- | --- | --- | --- | --- | --- | --- |
| CCCc1ccc(S(=O)(=O)Nc2ccc(F)c(C(=O)c3c[nH]c4ncnc(NC5CC5)c34)c2F)cc1 [P-1040, N-[3-(4-cyclopropylamino-7H-pyrrolo[2,3-d]pyrimidine-5-carbonyl)-2,4-difluoro-phenyl]-4-propyl-benzenesulfonamide] | > 10 µM | > 10 µM | M (moderate solubility if the threshold concentration is 31.3 μM to 250 μM) | L (low solubility if the threshold concentration is <31.3 μM) | L (low solubility if the threshold concentration is <31.3 μM) | L (low solubility if the threshold concentration is <31.3 μM) | > 10 µM | < 0.1 µM | > 10 µM | 5 to 10 µM | < 0.1 µM | 0.1-10 | 0.1-10 | > 10 µM | > 0.1 µM | >10 |  |  |  |  |
| CCc1ccc(S(=O)(=O)Nc2ccc(F)c(C(=O)c3c[nH]c4ncnc(NC(C)C)c34)c2F)cc1 [P-1042, N-[2,4-Difluoro-3-(4-isopropylamino-7H-pyrrolo[2,3-d]pyrimidine-5-carbonyl)-phenyl]-4-ethyl-benzenesulfonamide] | > 10 µM |  | M (moderate solubility if the threshold concentration is 31.3 μM to 250 μM) | L (low solubility if the threshold concentration is <31.3 μM) | L (low solubility if the threshold concentration is <31.3 μM) | L (low solubility if the threshold concentration is <31.3 μM) | > 10 µM | < 0.1 µM | > 10 µM |  | < 0.1 µM | 0.1-10 | 0.1-10 | > 10 µM | < 0.1 µM | >10 | 5 to 10 µM | > 10 µM |  |  |
| O=C(c1c(F)ccc(NS(=O)(=O)c2ccc(C(F)(F)F)cc2)c1F)c1c[nH]c2ncnc(NCCO)c12 [P-1043, N-{2,4-Difluoro-3-[4-(2-hydroxy-ethylamino)-7H-pyrrolo[2,3-d]pyrimidine-5-carbonyl]-phenyl}-4-trifluoromethyl-benzenesulfonamide] | > 10 µM | > 10 µM | H (high solubility if the threshold concentration is >250 μm) | M (moderate solubility if the threshold concentration is 31.3 μM to 250 μM) | M (moderate solubility if the threshold concentration is 31.3 μM to 250 μM) | M (moderate solubility if the threshold concentration is 31.3 μM to 250 μM) | > 10 µM | < 0.1 µM | > 10 µM |  | < 0.1 µM | 0.1-10 | >10 | > 10 µM | > 0.1 µM | >10 |  | > 10 µM |  |  |
| CC(C)Nc1ncnc2[nH]cc(C(=O)c3c(F)ccc(NS(=O)(=O)c4ccc(C(C)C)cc4)c3F)c12 [P-1044, N-[2,4-Difluoro-3-(4-isopropylamino-7H-pyrrolo[2,3-d]pyrimidine-5-carbonyl)-phenyl]-4-isopropyl-benzenesulfonamide] | > 10 µM | < 5 µM | M (moderate solubility if the threshold concentration is 31.3 μM to 250 μM) | M (moderate solubility if the threshold concentration is 31.3 μM to 250 μM) | M (moderate solubility if the threshold concentration is 31.3 μM to 250 μM) | M (moderate solubility if the threshold concentration is 31.3 μM to 250 μM) | > 10 µM | < 0.1 µM | > 10 µM |  | < 0.1 µM | 0.1-10 | >10 | > 10 µM | > 0.1 µM | >10 |  | > 10 µM |  |  |
| Cc1cc(C)cc(S(=O)(=O)Nc2ccc(F)c(C(=O)c3c[nH]c4ncnc(NC(C)C)c34)c2F)c1 [P-1045, N-[2,4-Difluoro-3-(4-isopropylamino-7H-pyrrolo[2,3-d]pyrimidine-5-carbonyl)-phenyl]-3,5-dimethyl-benzenesulfonamide] | > 10 µM | < 5 µM | M (moderate solubility if the threshold concentration is 31.3 μM to 250 μM) | L (low solubility if the threshold concentration is <31.3 μM) | L (low solubility if the threshold concentration is <31.3 μM) | L (low solubility if the threshold concentration is <31.3 μM) |  | < 0.1 µM | > 10 µM | 5 to 10 µM | > 0.1 µM | 0.1-10 | >10 |  | < 0.1 µM | 0.1-10 |  |  | > 10 µM | 5 to 10 µM |
| CCCc1ccc(S(=O)(=O)Nc2ccc(F)c(C(=O)c3c[nH]c4ncnc(NC5CCOCC5)c34)c2F)cc1 [P-1046, N-{2,4-Difluoro-3-[4-(tetrahydro-pyran-4-ylamino)-7H-pyrrolo[2,3-d]pyrimidine-5-carbonyl]-phenyl}-4-propyl-benzenesulfonamide] | > 10 µM | > 10 µM | M (moderate solubility if the threshold concentration is 31.3 μM to 250 μM) | L (low solubility if the threshold concentration is <31.3 μM) | L (low solubility if the threshold concentration is <31.3 μM) | L (low solubility if the threshold concentration is <31.3 μM) | > 10 µM | < 0.1 µM | > 10 µM |  | < 0.1 µM | 0.1-10 | >10 | > 10 µM | > 0.1 µM | >10 |  | > 10 µM |  |  |
| CCCS(=O)(=O)Nc1ccc(F)c(C(=O)c2c[nH]c3ncnc(NC4CCOCC4)c23)c1F [P-1047, Propane-1-sulfonic acid {2,4-difluoro-3-[4-(tetrahydro-pyran-4-ylamino)-7H-pyrrolo[2,3-d]pyrimidine-5-carbonyl]-phenyl}-amide] | > 10 µM | > 10 µM | M (moderate solubility if the threshold concentration is 31.3 μM to 250 μM) | L (low solubility if the threshold concentration is <31.3 μM) | L (low solubility if the threshold concentration is <31.3 μM) | L (low solubility if the threshold concentration is <31.3 μM) |  | < 0.1 µM | > 10 µM |  | < 0.1 µM | 0.1-10 | >10 | > 10 µM | < 0.1 µM | >10 |  | > 10 µM | > 10 µM |  |
| CN(C)c1ncnc2[nH]cc(C(=O)c3c(F)ccc(NS(=O)(=O)c4ccc(C(F)(F)F)cc4)c3F)c12 [P-1049, N-[3-(4-Dimethylamino-7H-pyrrolo[2,3-d]pyrimidine-5-carbonyl)-2,4-difluoro-phenyl]-4-trifluoromethyl-benzenesulfonamide] | > 10 µM | > 10 µM | M (moderate solubility if the threshold concentration is 31.3 μM to 250 μM) | M (moderate solubility if the threshold concentration is 31.3 μM to 250 μM) | M (moderate solubility if the threshold concentration is 31.3 μM to 250 μM) | M (moderate solubility if the threshold concentration is 31.3 μM to 250 μM) | > 10 µM | > 0.1 µM | > 10 µM |  | > 0.1 µM | 0.1-10 | >10 | > 10 µM | > 0.1 µM | >10 |  | > 10 µM |  |  |
